Measured values: paper PMC10046377, “Inhibitors of the Oncogenic PA2G4-MYCN Protein-Protein Interface” (Cancers, 2023)

Biological target: T1, PA2G4 protein (Homo sapiens, UniProt Q9UQ80)
T1 sequence (Q9UQ80 1-394): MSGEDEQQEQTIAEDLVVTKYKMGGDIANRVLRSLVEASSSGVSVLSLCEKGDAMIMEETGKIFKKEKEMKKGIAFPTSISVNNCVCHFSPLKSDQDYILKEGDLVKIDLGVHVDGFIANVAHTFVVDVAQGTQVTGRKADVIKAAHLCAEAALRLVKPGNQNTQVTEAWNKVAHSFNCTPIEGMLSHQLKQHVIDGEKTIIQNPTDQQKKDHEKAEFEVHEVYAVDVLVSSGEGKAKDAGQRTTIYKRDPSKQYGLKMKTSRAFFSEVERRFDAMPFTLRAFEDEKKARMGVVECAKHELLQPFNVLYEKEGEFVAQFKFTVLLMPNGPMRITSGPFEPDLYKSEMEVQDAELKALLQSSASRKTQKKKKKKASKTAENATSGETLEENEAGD
Assay: Surface plasmon resonance binding to recombinant PA2G4
Parameters: PA2G4 protein construct was ordered from GenScript (Piscataway, NJ, USA) and cloned into a pET22b vector; host or cells: BL21 (DE3) E. coli
Conditions: SPR
Procedure: PA2G4 protein construct was ordered from GenScript (Piscataway, NJ, USA) and cloned into a pET22b vector. The construct was expressed in BL21 (DE3) E. coli, which was transformed by adding 2 μL of DNA, as per the Addgene Bacterial Transformation Protocol (Addgene, Cambridge, MA, USA). A total of 250 μL of transformed cells were grown in Luria-Bertani (LB) agar, containing 100 μg/mL of ampicillin, overnight at 37 °C. Starting cultures were created by inoculating 100 mL of LB with several bacterial culture colonies, followed by an overnight shaking incubation at 125 rpm and 37 °C. The overnight culture was added (10 mL/L) to 2 L flasks of LB and incubated at 125 rpm and 37 °C until log phase growth was reached (OD600 = 0.6). Following incubation, the cell line was centrifuged at 4200 rpm for 30 min in 1 L bottles. The cell pellet was then resuspended in 25 mL of phosphate-buffered saline (PBS) and centrifuged again at 4200 rpm for 30 min.
Cell pellets were resuspended in 25 mL of Ni-IMAC buffer A (100 mM Tris (pH 8.0), 0.5 M NaCl, 1 mM TCEP), filtered through 22–25 μm Miracloth, and placed on ice. Filtered cells were lysed using the EmulsiFlex-C5 High-Pressure homogenizer (Avestin, Ottawa, ON, Canada), followed by high-speed centrifugation at 18,000 rpm for 20 min. The supernatant, containing the soluble cell lysate, was loaded onto a 5 mL His-Trap column (GE Healthcare Life Sciences, Buckinghamshire, UK) equilibrated in Ni-IMAC buffer A. An incremental gradient of Ni-IMAC buffer B (100 mM Tris pH 8.0, 0.5 M NaCl, 1 mM TCEP, and 1 M imidazole) was introduced. Eluted fractions were analysed by SDS-PAGE and pooled accordingly. Each protein sample was then loaded onto a HiPrep 26/10 Desalting column (GE Healthcare Life Sciences, Buckinghamshire, UK) and equilibrated into anion exchange buffer A (100 mM Tris pH 8.0, 50 mM NaCl, 1 mM TCEP). Samples were loaded onto the column and eluted fractions were analysed by SDS-PAGE and pooled accordingly.
Protein was loaded onto a 5 mL HiTrap Q (Sephrose-Q) anion exchange column (GE Healthcare Life Sciences, Buckinghamshire, UK) and equilibrated in anion exchange buffer A. Samples were loaded, eluted in the flow-through, and analysed using SDS-PAGE. Samples were pooled and concentrated using 10 kDa MWCO Ultra-4 centrifugal filters (Merck, Macquarie Park, NSW, Australia) and intermittent centrifugation at 4000 rpm. Protein samples were then purified using Size Exclusion Chromatography (SEC). Each sample was concentrated to […] using MWCO Ultra-4 centrifugal filters, then loaded onto a Superdex 75 16/60 SEC column (GE Healthcare Life Sciences, Buckinghamshire, UK) and equilibrated in SEC buffer (25 mM Hepes pH 7.7, 100 mM NaCl, 1 mM TCEP). Samples were eluted, analysed by SDS-PAGE, and concentrated to 10 mg/mL using 10 kDa MWCO Ultra-4 centrifugal filters, with intermitted centrifugation at 4000 rpm.
Recombinant PA2G4 was buffer exchanged into PBS buffer using an overnight dialysis at 4 °C. Protein was concentrated to 0.5 mg/mL and incubated for 3 h on ice with a 20:1 molar excess of EZ-Link Sulfo-NHS-LC-Biotin (Thermo Scientific, Melbourne, VIC, Australia). Biotinylated protein samples were isolated from excess biotin using a Superdex 200 10/300 SEC column (GE Healthcare Life Sciences, Buckinghamshire, UK). All SPR experiments were performed on a Biacore T200 instrument (GE Healthcare Life Sciences, Uppsala, Sweden), at 25 °C, in the presence of HEPES Buffered Saline (HBS) (20 mM […] (pH 7.5) 137 mM NaCl, 2.7 mM KCl, and 0.05% Tween 20). Streptavidin was coupled to a CM5 chip (GE Healthcare Life Sciences, Buckinghamshire, UK) using amine coupling. Biotinylated protein samples were then capture-coupled to the streptavidin, with flow cell 1 blocked as a reference.
Compounds were dissolved in 100% DMSO and diluted to 10 mM. […]

[1] = Biacore T200, 25 °C, biotinylated PA2G4

Kd [1]	Kd (recombinant PA2G4)	SMILES
14.9 µM	14.9 µM	Cc1cccc(Oc2cc(N3CCC(C(=O)NCc4cccc(C(F)(F)F)c4)CC3)ncn2)c1C [#3567]
10.8 µM	10.8 µM	Cc1cccc(Oc2cc(N3CCC(C(=O)NCc4cccc(Br)c4)CC3)ncn2)c1C [#5333]
13.5 µM	13.5 µM	Cc1cccc(Oc2cc(N3CCC(C(=O)N[C@@H](C)CCc4ccccc4)CC3)ncn2)c1C [#5338]
